Where “and” joins values, the source holds several entries; their conditions need not be identical. Equal entries are not always repeated.

The first experiment concerns Escherichia coli US311. The experiment in a line: in vivo activity against Escherichia coli US311 in mice (systemic lethal infection, single subcutaneous dose). Also noted: species or system Escherichia coli US311 in Carworth Farms CF-1 mice. The settings on record: infected intraperitoneally with lethal dose of E. coli US311. The source says: The starting material for the acylation procedure has been defined hereinabove as antibiotic BM123γ having formula (IV). When R' is structure (II) in formula (IV), then the antibiotic is BM123γ1 and when R' is structure (III) in formula (IV), then the antibiotic is BM123γ2. […] The preparation and properties of trans-BM123γ1 and trans-BM123γ2 are disclosed in U.S. Pat. No. 4,007,167 whereas the preparation and properties of cis-BM123γ1 and cis-BM123γ2 are set forth in U.S. Pat. No. 4,018,972. The term cis-BM123γ refers to a mixture in any proportion of cis-BM123γ1 and cis-BM123γ2 whereas the term trans-BM123γ refers to a mixture in any proportion of trans-BM123γ1 and trans-BM123γ2. The expression antibiotic BM123γ refers to either cis-BM123γ or trans-BM123γ. […] These new substances show high in vivo antibacterial activity in mice against Escherichia coli US311 when administered by a single subcutaneous dose to groups of Carworth Farms CF-1 mice, weight about 20 grams, infected intraperitoneally with a lethal dose of this bacteria in a 10^-3 trypticase soy broth TSP dilution of a 5 hour TSP blood culture. In Table I below is set forth the in vivo activity of typical products of this invention (prepared by the procedure of Example 1 from the indicated activated ester which was prepared by the procedure of Example 2 or Example 3) against Escherichia coli US311 in mice. The activity is expressed in terms of the ED50 or the dose in mg./kg. of body weight required to protect 50% of the mice against E. coli. The derivative name in Table I indicates whether cis-BM123 or trans-BM123 was employed as starting material.
With 1,4-Thiapyran(2)carbonyl-trans-BM123γ, the “ED50 (dose required to protect 50% of the mice against E. coli)” value was 2.0 mg./kg. of Body Weight.
Same read-out and setting: to 1-Naphthoyl-trans-BM123γ belongs 0.5 mg./kg. of Body Weight.
On the same count and under the same terms, the value for 2,3,6-Trichlorobenzoyl-trans-BM123γ was 2.0 mg./kg. of Body Weight; that for 2,4-Dichlorobenzoyl-trans-BM123γ was 0.5 mg./kg. of Body Weight and 1.0 mg./kg. of Body Weight; that for 2,5-Dibromobenzoyl-trans-BM123γ was 2.0 mg./kg. of Body Weight.
The same measure, in the same setting: to 2,6-Dimethoxybenzoyl-trans-BM123γ belongs 2.0 mg./kg. of Body Weight; to 2-Furyl-trans-BM123γ, 1.0 mg./kg. of Body Weight.
On to 2-Methylpropionyl-trans-BM123γ, for which the “ED50 (dose required to protect 50% of the mice against E. coli)” value is 2.0 mg./kg. of Body Weight.
For the substance 2-Napthyloxyacetyl-trans-BM123γ, the “ED50 (dose required to protect 50% of the mice against E. coli)” value is 0.5 mg./kg. of Body Weight.
The same measure, in the same setting: to 2-Thienyl-trans-BM123γ belongs 1.0 mg./kg. of Body Weight; to 3,4,5-Trimethoxybenzoyl-trans-BM123γ, 2.0 mg./kg. of Body Weight.
For 3,4-Dichlorobenzoyl-trans-BM123γ, the “ED50 (dose required to protect 50% of the mice against E. coli)” value is 0.5 mg./kg. of Body Weight and 1.0 mg./kg. of Body Weight.
On the same count and under the same terms, to 3,4-Dimethylbenzoyl-trans-BM123γ belongs 2.0 mg./kg. of Body Weight; to 3,5-Dichlorobenzoyl-trans-BM123γ, 0.5 mg./kg. of Body Weight.
The same measure, in the same setting: the value for 3,5-Dinitrobenzoyl-trans-BM123γ was 1.0 mg./kg. of Body Weight; that for 3-Methoxy-2-naphthoyl-trans-BM123γ was 2.0 mg./kg. of Body Weight.
Same read-out and setting: to “4-(p-Chlorophenylsulfonyl)-benzoyl-trans-BM123γ” belongs 2.0 mg./kg. of Body Weight; to “4-Carbethoxy-3,5-dimethoxybenzoyl-trans-BM123γ”, 2.0 mg./kg. of Body Weight; to “4-Ethyl-2,3-diketopiperazine-1-carbonyl-trans-BM123γ”, 2.0 mg./kg. of Body Weight.
In the case of 4-Fluoro-1-naphthoyl-trans-BM123γ, the “ED50 (dose required to protect 50% of the mice against E. coli)” value is 1.0 mg./kg. of Body Weight.
The same measure, in the same setting: the value for “4-Oxy-4H-thiapyran-3-yl-carbonyl-trans-BM123γ” was 2.0 mg./kg. of Body Weight.
On the same count and under the same terms, to 8-Bromo-1-napthoyl-trans-BM123γ belongs 1.5 mg./kg. of Body Weight.
On the same count and under the same terms, the value for Benzoyl-trans-BM123γ was 4.0 mg./kg. of Body Weight; that for Carbethoxyformyl-trans-BM123γ was 1.0 mg./kg. of Body Weight.
Consider Chlorodiphenylacetyl-trans-BM123γ, for which the “ED50 (dose required to protect 50% of the mice against E. coli)” value is given as 2.0 mg./kg. of Body Weight.
Same read-out and setting: the value for Cinnamoyl-trans-BM123γ was 2.0 mg./kg. of Body Weight.
The same measure, in the same setting: to Cyclopropylcarbonyl-trans-BM123γ belongs 2.0 mg./kg. of Body Weight; to Decanoyl-trans-BM123γ, 2.0 mg./kg. of Body Weight; to Methoxyacetyl-trans-BM123γ, 2.0 mg./kg. of Body Weight.
In the case of Pentachlorobenzoyl-trans-BM123γ, the “ED50 (dose required to protect 50% of the mice against E. coli)” value was 2.0 mg./kg. of Body Weight.
Still for that read-out and setting: the value for Pentafluorobenzoyl-trans-BM123γ was 0.5 mg./kg. of Body Weight; that for Phenoxyacetyl-trans-BM123γ was 1.0 mg./kg. of Body Weight; that for Propionyl-trans-BM123γ was 4.0 mg./kg. of Body Weight.
In the case of “Pyridine-n-oxide-2-carbonyl-trans-BM123γ”, the “ED50 (dose required to protect 50% of the mice against E. coli)” value is 2.0 mg./kg. of Body Weight.
As to Trichloroacetyl-trans-BM123γ, the “ED50 (dose required to protect 50% of the mice against E. coli)” value is 1.0 mg./kg. of Body Weight.
Consider Trimethylacetyl-trans-BM123γ, for which the “ED50 (dose required to protect 50% of the mice against E. coli)” value is recorded as 1.0 mg./kg. of Body Weight.
On the same count and under the same terms, to m-Bromobenzoyl-trans-BM123γ belongs 0.75 mg./kg. of Body Weight; to m-Fluorobenzoyl-trans-BM123γ, 1.0 mg./kg. of Body Weight.
Same read-out and setting: to m-Hydroxybenzoyl-trans-BM123γ belongs 1.5 mg./kg. of Body Weight; to m-Mercaptobenzoyl-trans-BM123γ, 2.0 mg./kg. of Body Weight; to m-Methylbenzoyl-trans-BM123γ, 1.0 mg./kg. of Body Weight.
m-Phenoxybenzoyl-trans-BM123γ: the “ED50 (dose required to protect 50% of the mice against E. coli)” value was 1.5 mg./kg. of Body Weight.
Take o-Acetoxybenzoyl-trans-BM123γ: the “ED50 (dose required to protect 50% of the mice against E. coli)” value is 2.0 mg./kg. of Body Weight.
As for o-Benzoylbenzoyl-trans-BM123γ, the “ED50 (dose required to protect 50% of the mice against E. coli)” value is 2.0 mg./kg. of Body Weight.
Still for that read-out and setting: to o-Benzylbenzoyl-trans-BM123γ belongs 2.0 mg./kg. of Body Weight.
Same read-out and setting: to o-Fluorobenzoyl-trans-BM123γ belongs 1.0 mg./kg. of Body Weight.
Same read-out and setting: to o-Hydroxybenzoyl-trans-BM123γ belongs 8.0 mg./kg. of Body Weight; to o-Mercaptobenzoyl-trans-MB123γ, 2.0 mg./kg. of Body Weight.
As for o-Methylbenzoyl-trans-BM123γ, the “ED50 (dose required to protect 50% of the mice against E. coli)” value was 2.0 mg./kg. of Body Weight and 1.0 mg./kg. of Body Weight.
Same read-out and setting: to p-Acetaminobenzoyl-trans-BM123γ belongs 2.0 mg./kg. of Body Weight.
Turning to p-Acetylbenzoyl-trans-BM123γ, the “ED50 (dose required to protect 50% of the mice against E. coli)” value is given as 2.0 mg./kg. of Body Weight.
The same measure, in the same setting: the value for p-Biphenylcarbonyl-trans-BM123γ was 2.0 mg./kg. of Body Weight; that for p-Chlorobenzoyl-trans-BM123γ was 4.0 mg./kg. of Body Weight; that for p-Cyanobenzoyl-trans-BM123γ was 4.0 mg./kg. of Body Weight.
Still for that read-out and setting: to p-Dimethylaminobenzoyl-trans-BM123γ belongs 2.0 mg./kg. of Body Weight.
The same measure, in the same setting: to p-Ethoxybenzoyl-trans-BM123γ belongs 2.0 mg./kg. of Body Weight; to p-Fluorobenzoyl-trans-BM123γ, 1.0 mg./kg. of Body Weight; to p-Formylbenzoyl-trans-BM123γ, 2.0 mg./kg. of Body Weight.
p-Hydroxybenzoyl-trans-BM123γ: the “ED50 (dose required to protect 50% of the mice against E. coli)” value was 2.0 mg./kg. of Body Weight.
The same measure, in the same setting: to p-Methoxybenzoyl-trans-BM123γ belongs 1.0 mg./kg. of Body Weight; to p-Methylthiobenzoyl-trans-BM123γ, 4.0 mg./kg. of Body Weight; to p-Nitrobenzoyl-trans-BM123γ, 0.5 mg./kg. of Body Weight.
Same read-out and setting: the value for p-Sulfamylbenzoyl-trans-BM123γ was 0.5 mg./kg. of Body Weight; that for p-Trifluoromethoxybenzoyl:trans-BM123γ was 1.0 mg./kg. of Body Weight; that for p-Trifluoromethylbenzoyl-trans-BM123γ was 4.0 mg./kg. of Body Weight.
Still for that read-out and setting: to p-t-Butylbenzoyl-trans-BM123γ belongs 4.0 mg./kg. of Body Weight.
With α-Bromopropionyl-trans-BM123γ, the “ED50 (dose required to protect 50% of the mice against E. coli)” value is given as 2.0 mg./kg. of Body Weight.
Still for that read-out and setting: to α-Phenoxypropionyl-trans-BM123γ belongs 2.0 mg./kg. of Body Weight and 1.0 mg./kg. of Body Weight.

The experiment is the same for the next values; noted with them: infected intraperitoneally with lethal dose of E. coli US311, listed as α-Phenyoxypropionyl-trans-BM123γ.
In the case of α-Phenoxypropionyl-trans-BM123γ, the “ED50 (dose required to protect 50% of the mice against E. coli)” value is given as 2.0 mg./kg. of Body Weight.
